Data taken from publication PMC8296573, “Synthesis and Biological Evaluation of Fingolimod Derivatives as Antibacterial Agents” (ACS Omega, 2021).
≈ marks a conversion by molar mass, not a printed value. Like-named read-outs stand apart in the source and are kept apart here. Marks after values point to notes of the source that are not given here.

Assays:
P. aeruginosa ATCC 9027 = test: Antibacterial activity, pre-exposure; assay type: cell-based, Pseudomonas aeruginosa; conditions: for Average inhibition %, biofilms viability / Average inhibition %, planktonic cells viability / inhibition at 50 µM / inhibition at 100 µM / inhibition at 150 µM / inhibition at 200 µM: P. aeruginosa ATCC 9027, pre-exposure, ± SD; for inhibition at 50 µM / inhibition at 100 µM / inhibition at 150 µM / inhibition at 200 µM: ATCC9027
Outline: (§1)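 Bacteria and compound were co-incubated from the start for 18 h at 37 °C, 220 rpm. Planktonic cells scored by turbidity plus resazurin reduction; washed biofilms scored by 20 μM resazurin (30, 60, 90 min for S. aureus, A. baumannii, P. aeruginosa) and ethanol-fixed crystal violet staining.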

S. aureus ATCC 25923 [1] = test: Antibacterial activity, post-exposure on preformed 18-h-old biofilms; assay type: cell-based, Staphylococcus aureus; conditions: ± SD; for inhibition at 25 µM / inhibition at 50 µM / inhibition at 100 µM / inhibition at 200 µM: Staphylococcus aureus; for inhibition at 25 µM: ATCC25923, 25 µM; for inhibition at 50 µM: ATCC25923, 50 µM; for inhibition at 100 µM: ATCC25923, 100 µM; for inhibition at 200 µM: ATCC25923, 200 µM
Outline: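 Compounds were applied to preformed 18-h biofilms after medium change and left 24 h. Read-outs: planktonic OD plus resazurin fluorescence (20 μM), biofilm metabolic activity by resazurin 30 min at 37 °C, then biomass by crystal violet absorbance at 595 nm after ethanol fixation.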

A. baumannii NCTC 13423 = test: Antibacterial activity, pre-exposure; assay type: cell-based, Acinetobacter baumannii; conditions: for Average inhibition %, biofilms viability / Average inhibition %, planktonic cells viability / inhibition at 10 µM / inhibition at 15 µM / inhibition at 25 µM / inhibition at 50 µM: A. baumannii NCTC 13423, pre-exposure, ± SD
Outline: as §1

S. aureus ATCC 25923 [2] = test: Antibacterial activity, pre-exposure (planktonic cells and biofilm formation); assay type: cell-based, Staphylococcus aureus; conditions: for inhibition at 5 µM / inhibition at 10 µM / inhibition at 15 µM / inhibition at 25 µM / Average inhibition %, biofilms viability / Average inhibition %, planktonic cells viability: pre-exposure, ± SD
Outline: as §1

[3] = read-out: Average inhibition %, biofilms biomass
[4] = read-out: Average inhibition %, planktonic cells turbidity

CCCCCCCCc1ccc(CCC(N)(CO)CO)cc1 [fingolimod, Fingolimod]
Average inhibition %, biofilms viability (P. aeruginosa ATCC 9027; 50 µM): 12.4 ± 13.4%
Average inhibition %, planktonic cells viability (P. aeruginosa ATCC 9027; 50 µM): 43.9 ± 35.5%
Average inhibition %, biofilms viability (P. aeruginosa ATCC 9027; 100 µM): 36.5 ± 23.1%
Average inhibition %, planktonic cells viability (P. aeruginosa ATCC 9027; 100 µM): 92.5 ± 4.8%
Average inhibition %, biofilms viability (P. aeruginosa ATCC 9027; 150 µM): 42.4 ± 25.3%
Average inhibition %, planktonic cells viability (P. aeruginosa ATCC 9027; 150 µM): 94.2 ± 3.6%
Average inhibition %, biofilms viability (P. aeruginosa ATCC 9027; 200 µM): 47.5 ± 22.6%
Average inhibition %, planktonic cells viability (P. aeruginosa ATCC 9027; 200 µM): 95 ± 1.2%
MIC (P. aeruginosa ATCC 9027; Pseudomonas aeruginosa, ATCC9027, pre-exposure, Inactive = no activity up to 200 μM, > = some inhibition but no MIC reached, read-out: MIC P. aeruginosa ATCC 9027): > 200 µM
inhibition at 50 µM (P. aeruginosa ATCC 9027; Pseudomonas aeruginosa, 50 µM, read-out: Average inhibition %, biofilms biomass): 30.1 ± 16.2%
inhibition at 50 µM (P. aeruginosa ATCC 9027; Pseudomonas aeruginosa, 50 µM, read-out: Average inhibition %, planktonic cells turbidity): 51.5 ± 24%
inhibition at 100 µM (P. aeruginosa ATCC 9027; Pseudomonas aeruginosa, 100 µM, read-out: Average inhibition %, biofilms biomass): 36.9 ± 13.7%
inhibition at 100 µM (P. aeruginosa ATCC 9027; Pseudomonas aeruginosa, 100 µM, read-out: Average inhibition %, planktonic cells turbidity): 85.9 ± 3.6%
inhibition at 150 µM (P. aeruginosa ATCC 9027; Pseudomonas aeruginosa, 150 µM, read-out: Average inhibition %, biofilms biomass): 40.7 ± 17.8%
inhibition at 150 µM (P. aeruginosa ATCC 9027; Pseudomonas aeruginosa, 150 µM, read-out: Average inhibition %, planktonic cells turbidity): 86.8 ± 3.4%
inhibition at 200 µM (P. aeruginosa ATCC 9027; Pseudomonas aeruginosa, 200 µM, read-out: Average inhibition %, biofilms biomass): 45.4 ± 18.5%
inhibition at 200 µM (P. aeruginosa ATCC 9027; Pseudomonas aeruginosa, 200 µM, read-out: Average inhibition %, planktonic cells turbidity): 85.1 ± 3.8%
MIC P. aeruginosa ATCC 9027 (P. aeruginosa ATCC 9027; pre-exposure, Inactive = no activity up to 200 μM, > = some inhibition but no MIC reached, listed as Fgd): > 200 ^b μM
Average inhibition %, biofilms viability (S. aureus ATCC 25923 [1]; 25 µM): 19.2 ± 14.5%
Average inhibition %, planktonic cells viability (S. aureus ATCC 25923 [1]; 25 µM): 7.8 ± 3.6%
Average inhibition %, biofilms viability (S. aureus ATCC 25923 [1]; 50 µM): 35 ± 7%
Average inhibition %, planktonic cells viability (S. aureus ATCC 25923 [1]; 50 µM): 2.9 ± 2.6%
Average inhibition %, biofilms viability (S. aureus ATCC 25923 [1]; 100 µM): 52.2 ± 12.4%
Average inhibition %, planktonic cells viability (S. aureus ATCC 25923 [1]; 100 µM): 48.9 ± 16.2%
Average inhibition %, biofilms viability (S. aureus ATCC 25923 [1]; 200 µM): 77.3 ± 19%
Average inhibition %, planktonic cells viability (S. aureus ATCC 25923 [1]; 200 µM): 90.5 ± 9.9%
inhibition at 25 µM (S. aureus ATCC 25923 [1]; [3]): 39.7 ± 16.2%
inhibition at 25 µM (S. aureus ATCC 25923 [1]; [4]): 1.1 ± 2%
inhibition at 50 µM (S. aureus ATCC 25923 [1]; [3]): 60.7 ± 12.4%
inhibition at 50 µM (S. aureus ATCC 25923 [1]; [4]): 13.8 ± 11.2%
inhibition at 100 µM (S. aureus ATCC 25923 [1]; [3]): 67.3 ± 9.5%
inhibition at 100 µM (S. aureus ATCC 25923 [1]; [4]): 42.4 ± 7%
inhibition at 200 µM (S. aureus ATCC 25923 [1]; [3]): 71 ± 11%
inhibition at 200 µM (S. aureus ATCC 25923 [1]; [4]): 75.5 ± 11%
Average inhibition %, biofilms viability (A. baumannii NCTC 13423; 10 µM): 0.2 ± 0.5%
Average inhibition %, planktonic cells viability (A. baumannii NCTC 13423; 10 µM): 5.9 ± 4.9%
Average inhibition %, biofilms viability (A. baumannii NCTC 13423; 15 µM): 63.6 ± 31.5%
Average inhibition %, planktonic cells viability (A. baumannii NCTC 13423; 15 µM): 74.1 ± 38.2%
Average inhibition %, biofilms viability (A. baumannii NCTC 13423; 25 µM): 97.6 ± 2.3%
Average inhibition %, planktonic cells viability (A. baumannii NCTC 13423; 25 µM): 99.5 ± 0.3%
Average inhibition %, biofilms viability (A. baumannii NCTC 13423; 50 µM): 98.4 ± 1.1%
Average inhibition %, planktonic cells viability (A. baumannii NCTC 13423; 50 µM): 99.4 ± 0.4%
inhibition at 10 µM (A. baumannii NCTC 13423; Acinetobacter baumannii, NCTC13423, 10 µM, read-out: Average inhibition %, biofilms biomass): 1.9 ± 3.9%
inhibition at 10 µM (A. baumannii NCTC 13423; Acinetobacter baumannii, NCTC13423, 10 µM, read-out: Average inhibition %, planktonic cells turbidity): 0%
inhibition at 15 µM (A. baumannii NCTC 13423; Acinetobacter baumannii, NCTC13423, 15 µM, read-out: Average inhibition %, biofilms biomass): 44.1 ± 26.9%
inhibition at 15 µM (A. baumannii NCTC 13423; Acinetobacter baumannii, NCTC13423, 15 µM, read-out: Average inhibition %, planktonic cells turbidity): 71.1 ± 37.7%
inhibition at 25 µM (A. baumannii NCTC 13423; Acinetobacter baumannii, NCTC13423, 25 µM, read-out: Average inhibition %, biofilms biomass): 79.2 ± 13.4%
inhibition at 25 µM (A. baumannii NCTC 13423; Acinetobacter baumannii, NCTC13423, 25 µM, read-out: Average inhibition %, planktonic cells turbidity): 98.8 ± 2%
inhibition at 50 µM (A. baumannii NCTC 13423; Acinetobacter baumannii, NCTC13423, 50 µM, read-out: Average inhibition %, biofilms biomass): 84.8 ± 7.8%
inhibition at 50 µM (A. baumannii NCTC 13423; Acinetobacter baumannii, NCTC13423, 50 µM, read-out: Average inhibition %, planktonic cells turbidity): 98.5 ± 1.4%
MIC (A. baumannii NCTC 13423; Acinetobacter baumannii, NCTC13423, pre-exposure, Inactive = no activity up to 50 μM, > = some inhibition but no MIC reached, read-out: MIC A. baumannii NCTC 13423): 25 µM (≈ 7.69 µg/mL)
MIC (S. aureus ATCC 25923 [2]; Staphylococcus aureus, ATCC25923, lowest concentration with no visible growth (>90% inhibition of turbidity and viability of planktonic cells), 18 h, read-out: MIC S. aureus ATCC 25923): 15 µM (≈ 4.61 µg/mL)
inhibition at 5 µM (S. aureus ATCC 25923 [2]; Staphylococcus aureus, ATCC25923, 5 µM, read-out: Average inhibition %, biofilms biomass): 37 ± 11.2%
inhibition at 5 µM (S. aureus ATCC 25923 [2]; Staphylococcus aureus, ATCC25923, 5 µM, read-out: Average inhibition %, planktonic cells turbidity): 25 ± 10.6%
inhibition at 10 µM (S. aureus ATCC 25923 [2]; Staphylococcus aureus, ATCC25923, 10 µM, read-out: Average inhibition %, biofilms biomass): 42.2 ± 5%
inhibition at 10 µM (S. aureus ATCC 25923 [2]; Staphylococcus aureus, ATCC25923, 10 µM, read-out: Average inhibition %, planktonic cells turbidity): 36.7 ± 10%
inhibition at 15 µM (S. aureus ATCC 25923 [2]; Staphylococcus aureus, ATCC25923, 15 µM, read-out: Average inhibition %, biofilms biomass): 91.7 ± 6%
inhibition at 15 µM (S. aureus ATCC 25923 [2]; Staphylococcus aureus, ATCC25923, 15 µM, read-out: Average inhibition %, planktonic cells turbidity): 99.8 ± 0.1%
inhibition at 25 µM (S. aureus ATCC 25923 [2]; Staphylococcus aureus, ATCC25923, 25 µM, read-out: Average inhibition %, biofilms biomass): 90.8 ± 6.9%
inhibition at 25 µM (S. aureus ATCC 25923 [2]; Staphylococcus aureus, ATCC25923, 25 µM, read-out: Average inhibition %, planktonic cells turbidity): 99.8 ± 0.1%
Average inhibition %, biofilms viability (S. aureus ATCC 25923 [2]; 5 µM): 38.7 ± 5.5%
Average inhibition %, planktonic cells viability (S. aureus ATCC 25923 [2]; 5 µM): 16.1 ± 26.5%
Average inhibition %, biofilms viability (S. aureus ATCC 25923 [2]; 10 µM): 41.5 ± 7.1%
Average inhibition %, planktonic cells viability (S. aureus ATCC 25923 [2]; 10 µM): 17.2 ± 23.4%
Average inhibition %, biofilms viability (S. aureus ATCC 25923 [2]; 15 µM): 99.7 ± 0.2%
Average inhibition %, planktonic cells viability (S. aureus ATCC 25923 [2]; 15 µM): 99.9 ± 0%
Average inhibition %, biofilms viability (S. aureus ATCC 25923 [2]; 25 µM): 99.5 ± 0.1%
Average inhibition %, planktonic cells viability (S. aureus ATCC 25923 [2]; 25 µM): 99.9 ± 0.1%
